In PMC11945486, “TAS1R2/TAS1R3 Single-Nucleotide Polymorphisms Affect Sweet Taste Receptor Activation by Sweeteners: The SWEET Project” (Nutrients, 2025):
No end group written: not given here.

T1: human TAS1R2-I234V/TAS1R3-WT (Homo sapiens, UniProt Q7RTX0+Q8TE23, I234V)
T1 construct: expressed in transfected cells; host or cells: HEK293T-Gα16gust44
T1 sequence (Q8TE23 20-839 I234V): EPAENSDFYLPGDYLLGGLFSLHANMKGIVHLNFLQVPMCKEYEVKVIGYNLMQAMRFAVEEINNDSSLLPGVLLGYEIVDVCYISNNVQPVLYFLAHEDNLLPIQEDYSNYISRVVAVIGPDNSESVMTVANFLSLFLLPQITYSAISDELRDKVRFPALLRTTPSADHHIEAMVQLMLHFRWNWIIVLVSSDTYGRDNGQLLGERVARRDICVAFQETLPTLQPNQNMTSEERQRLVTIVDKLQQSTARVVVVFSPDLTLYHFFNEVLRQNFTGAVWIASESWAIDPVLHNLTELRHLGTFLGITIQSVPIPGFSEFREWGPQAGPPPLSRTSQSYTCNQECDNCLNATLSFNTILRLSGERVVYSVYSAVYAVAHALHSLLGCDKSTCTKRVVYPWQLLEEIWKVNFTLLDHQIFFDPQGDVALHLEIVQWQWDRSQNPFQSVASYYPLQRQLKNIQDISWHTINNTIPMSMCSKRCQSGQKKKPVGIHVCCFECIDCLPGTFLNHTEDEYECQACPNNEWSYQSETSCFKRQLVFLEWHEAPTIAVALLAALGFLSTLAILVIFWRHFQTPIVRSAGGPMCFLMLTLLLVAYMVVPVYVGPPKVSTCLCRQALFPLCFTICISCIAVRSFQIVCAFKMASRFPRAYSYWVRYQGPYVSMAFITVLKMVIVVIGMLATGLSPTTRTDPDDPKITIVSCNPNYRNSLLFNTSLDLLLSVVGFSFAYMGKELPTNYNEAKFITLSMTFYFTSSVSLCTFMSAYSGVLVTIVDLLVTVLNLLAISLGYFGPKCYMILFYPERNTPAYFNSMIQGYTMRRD
T1 sequence (Q7RTX0 21-852): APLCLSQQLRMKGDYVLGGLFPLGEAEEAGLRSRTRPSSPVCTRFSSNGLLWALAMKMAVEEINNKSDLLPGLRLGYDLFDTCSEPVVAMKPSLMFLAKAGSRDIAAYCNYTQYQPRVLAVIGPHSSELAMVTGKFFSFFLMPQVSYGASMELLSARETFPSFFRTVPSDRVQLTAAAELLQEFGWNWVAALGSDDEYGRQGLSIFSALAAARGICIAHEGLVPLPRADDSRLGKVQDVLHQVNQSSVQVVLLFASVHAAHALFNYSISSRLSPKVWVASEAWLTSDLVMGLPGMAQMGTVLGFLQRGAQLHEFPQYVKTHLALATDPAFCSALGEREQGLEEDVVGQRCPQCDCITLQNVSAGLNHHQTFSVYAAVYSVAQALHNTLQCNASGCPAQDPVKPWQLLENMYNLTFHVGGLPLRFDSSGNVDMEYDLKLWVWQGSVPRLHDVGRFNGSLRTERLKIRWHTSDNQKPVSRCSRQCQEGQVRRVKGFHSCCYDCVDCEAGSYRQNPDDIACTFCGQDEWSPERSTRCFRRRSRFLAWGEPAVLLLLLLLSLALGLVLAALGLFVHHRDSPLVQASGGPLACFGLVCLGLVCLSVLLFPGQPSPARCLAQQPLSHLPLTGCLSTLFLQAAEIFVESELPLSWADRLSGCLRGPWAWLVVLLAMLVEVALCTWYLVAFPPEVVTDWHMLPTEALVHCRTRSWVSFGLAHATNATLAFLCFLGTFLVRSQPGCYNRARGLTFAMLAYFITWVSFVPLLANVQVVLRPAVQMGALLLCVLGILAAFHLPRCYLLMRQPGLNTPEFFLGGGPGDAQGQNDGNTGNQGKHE

B1: thaumatin (protein)
chain: ATFEIVNRCSYTVWAAASKGDAALDAGGRQLNSGESWTINVEPGTKGGKIWARTDCYFDDSGSGICKTGDCGGLLRCKRFGRPPTTLAEFSLNQYGKDYIDISNIKGFNVPMDFSPTTRGCRGVRCAADIVGQCPAKLKAPGGGCNDACTVFQTSEYCCTTGKCGPTEYSRFFKRLCPDAFSYVLDKPTTVTCPGSSNYRVTFCPTA
modifications: Eight disulfides
notes: sweet-tasting plant protein, E957

Molecular target: T1, human TAS1R2-I234V/TAS1R3-WT
Assay: Calcium mobilisation assay, TAS1R2 variant I234V with TAS1R3-WT
Assay type: cell-based
Details: for Max ΔF/F0: maximal signal amplitude
Source text: The coding sequences for TAS1R2 and TAS1R3 were commercially synthesised, and the human codon was optimised for expression in human cells. The coding sequences of human TAS1R2 and TAS1R3 were subcloned and inserted into the mammalian expression vectors pcDNA6/myc-HisA and pcDNA4/myc-HisA (Invitrogen; Thermo Fisher Scientific; Illkirch, France) between the EcoRI and NotI restriction sites, generating the plasmids pcDNA6-TAS1R2 and pcDNA4-TAS1R3, respectively. To increase protein expression in mammalian cells, an upstream start codon was used, which was a sequence called MAX, corresponding to the QBI SP163 element also described in pcDNA4-HisMax (Invitrogen; Thermo Fisher Scientific; Illkirch, France). To measure the expression level of the receptor by immunohistochemistry, we used the FLAG sequence ([…]) in the C-terminal position, which encodes the FLAG tag epitope. SNP variants of TAS1R2 and TAS1R3 were constructed based on […], respectively, using site-directed mutagenesis (Genewiz; Leipzig, Germany).
The HEK293T cells were kindly provided by Jay P. Slack (Givaudan Flavors Corporation; Cincinnati, OH, USA). HEK293T cells stably transfected with Gα16gust44 [43, 67] were seeded in poly-D-lysine-coated clear-bottom black 96-well plates (0.35 × 10^5 cells/well) in high-glucose DMEM supplemented with 2 mM GlutaMAX, 10% dialysed foetal bovine serum with penicillin/streptomycin and G418 (400 μg/mL) at 37 °C and 6.3% CO2 in a humidified atmosphere as previously reported. […] As a negative control, HEK293T cells were mock-transfected with the empty expression vector. After a further 24 h of incubation, the HEK293T cells were washed with C1 buffer (130 mM NaCl, 5 mM KCl, 10 mM HEPES pH 7.4 and 2 mM CaCl2). The 96-well plates containing the cells were then stimulated with sweet-tasting compounds. […] Different concentration ranges were tested depending on the sweet compound injected. The Ca^2+ changes were expressed as fractional changes in fluorescent light intensity: ΔF/F = (F − F0)/F0, where F was the fluorescent light intensity at each point, and F0 was the value of emitted fluorescent light prior to stimulus application. To calculate dose–response relationships, the changes in fluorescence upon stimulus application were averaged, mock-subtracted and baseline-corrected. The dose–response data obtained were adjusted using a 4-parameter logistic equation. The half-maximal effective concentrations (EC50 values) and maximal signal amplitudes were calculated using SigmaPlot software (version 15.0) (Systat Software; San Jose, CA, USA).
For in vitro calcium mobilisation assay performed on hTAS1R2-SNPs, hTAS1R3-SNPs and mTAS1R3-I60T, 6 to 7 concentrations were tested for each sweet compound, plus buffer alone. All concentration–receptor combinations were measured in duplicate, and each experiment was repeated at least 4 times (8 wells/concentration). Results were expressed for each concentration as ΔF/F mean ± SEM and represented as dose–response curves.

Molecule	EC50 [µM]	R1 = Variant EC50/WT EC50	Max ΔF/F0
OC[C@H]1O[C@H](O[C@]2(CCl)O[C@H](CCl)[C@@H](O)[C@@H]2O)[C@H](O)[C@@H](O)[C@H]1Cl [Sucralose]	60 ± 7	0.7	0.75 ± 0.03
C[C@H](CC[C@@H](O[C@@H]1O[C@H](CO[C@@H]2O[C@H](CO)[C@@H](O)[C@H](O)[C@H]2O)[C@@H](O)[C@H](O)[C@H]1O[C@@H]1O[C@H](CO)[C@@H](O)[C@H](O)[C@H]1O)C(C)(C)O)[C@H]1CC[C@@]2(C)[C@@H]3CC=C4[C@@H](CC[C@H](O[C@@H]5O[C@H](CO[C@@H]6O[C@H](CO)[C@@H](O)[C@H](O)[C@H]6O)[C@@H](O)[C@H](O)[C@H]5O)C4(C)C)[C@]3(C)[C@H](O)C[C@]12C [Mogroside V, mogroside V]	19.4 ± 1.6	1.1	1.28 ± 0.04
COC(=O)[C@H](Cc1ccccc1)NC(=O)[C@H](CC(=O)O)NCCC(C)(C)C [Neotame]	0.8 ± 0.08	1.0	0.66 ± 0.02
brazzein (QDKCKKVYENYPVSKCQLANQCNYDCKLDKHARSGECFYDEKRNLQCICDYCEY; ends and bridges not checked; cysteine pairing not given here; UniProt P56552 1-54, looked up) [sweet-tasting protein obtained by recombinant production using the yeast Pichia pastoris]	–	1.1	1.34 ± 0.05
C=C(C)[C@@H]1CC=C(/C=N/O)CC1 [Perillartine, perillartine]	20.1 ± 1.1	1.1	1.52 ± 0.03
CC1=CC(=O)NS(=O)(=O)O1 [Acesulfame K, acesulfame K]	510 ± 63	0.7	0.41 ± 0.02
C=C1C[C@@]23CC[C@H]4[C@@](C)(CCC[C@@]4(C)C(=O)O[C@@H]4O[C@H](CO)[C@@H](O)[C@H](O[C@@H]5O[C@H](CO)[C@@H](O)[C@H](O)[C@H]5O)[C@H]4O[C@@H]4O[C@H](CO)[C@@H](O)[C@H](O)[C@H]4O)[C@@H]2CC[C@]1(O[C@@H]1O[C@H](CO)[C@@H](O)[C@H](O[C@@H]2O[C@H](CO)[C@@H](O)[C@H](O)[C@H]2O)[C@H]1O[C@@H]1O[C@H](CO)[C@@H](O)[C@H](O)[C@H]1O)C3 [Rebaudioside M, rebaudioside M]	18.4 ± 0.6	1.1	1.14 ± 0.01
O=S(=O)(O)NC1CCCCC1 [Cyclamate, cyclamate]	2250 ± 42	–	–
COc1ccc(CCC(=O)c2c(O)cc(O[C@@H]3O[C@H](CO)[C@@H](O)[C@H](O)[C@H]3O[C@@H]3O[C@@H](C)[C@H](O)[C@@H](O)[C@H]3O)cc2O)cc1O [NHDC, neohesperidin dihydrochalcone]	94.7 ± 6.8	1.2	0.80 ± 0.02
thaumatin	–	1.8	1.25 ± 0.01
B1	13.8 ± 0.2	–	–
